US7601685B2, “Growth factor modified protein matrices for tissue engineering” (Eidgenossische Technische Hochschule Zurich, priority 1998, dated 2009)

How the values were obtained:
sheep drill defect = assay: Sheep bone drill defect healing; format: in vivo; details: healing time 8 weeks
Procedure: To form the fibrin gel, the dilute precursors were mixed together by injecting the fibrinogen into the tube containing the thrombin. In case of the sheep drill defect (as described below) this mixture was then injected immediately into a drill defect created in sheep cancellous bone, where a fibrin gel formed within 1-5 minutes. In the first series of animal experiments, the efficacy of a fusion protein containing PTH1-34 as the bioactive factor ([…], SEQ ID NO:38) in healing cortical bone was tested in a small animal model. The sequence, YKNR, makes the linkage plasmin degradable (“TG-pl-PTH1-34). The TG-pl-PTH1-34 was made by chemical synthesis. […] The purity of the TG-pl-PTH1-34 was determined to be 95%.
TG-pl-PTH1-34 was tested as well in a long bone defect model to test the effect of this hormone on healing bone. In the sheep drill defect model, 8 mm cylindrically drill defects that were approximately 15 mm deep were placed in both the proximal and distal region of the femur and humerus bones. Since the defect was placed in the epiphysis of the long bones, the defect was surrounded by trabecular bone with a thin layer of cortical bone at the rim of the defect. These defects were then filled with an in situ polymerizing fibrin (about 750 μL) that contained various doses of TG-pl-PTH1-34. or TGPTH1-34. Animals were allowed to heal for eight weeks and then were sacrificed. The defect was analyzed with μCT and histology.
For this series of experiments, three types of compositions were tested. First, TG-pl-PTH1-34 was tested over a large concentration range. […] Thus, TGPTH1-34 could only be liberated by degradation of the fibrin matrix itself. TGPTH1-34 was produced and purified similar to TG-pl-PTH1-34. Purity was determined to be 95%. TGPTH1-34 was tested at several concentrations that were similar to the concentrations of TG-pl-PTH1-34 to compare efficacy. Finally, matrices were made in the presence of granular material, with either TGPTH1-34 or TG-pl-PTH1-34. The granular material was a standard tricalcium phosphate/hydroxyapatite mixture which was embedded in the matrix during gelation. The effect of adding these granules on the efficacy of PTH1-34 was explored. As a control, unmodified fibrin was tested.
The fibrin gel for all experiments was made as described in Example 7. The sheep bone defects were prepared as described in Example 7. The defects were filled with 750 μL of fibrin matrix alone (control) or with TG-pl-PDGFAB, TG-pl-IGF1 or TG-pl-BMP2. The sheep were allowed to heal for eight weeks and were then sacrificed. The explanted defect area was examined with μCT to evaluate the degree of new bone formation.

[1] = test system: critical size rat cranial defect; assay: Rat critical size cranial defect healing; format: in vivo; details: for Healing (% defect filled with bone): Time 63 Days
chick DRGs = assay: Neurite extension of DRGs in fibrin matrices with immobilized β-NGF fusion proteins; format: cell-based
Excerpt: FIG. 3 is a graph of the effect of immobilized β-NGF fusion proteins on DRG neurite extension within fibrin matrices. Mean values and standard error of the mean are shown. ▪ denotes native NGF. ♦ denotes TG-P-NGF. ● denotes TG-Pi-NGF. * denotes p<0.0001 versus unmodified fibrin with NGF in the culture medium.
To determine the ability of covalently immobilized β-NGF fusion protein to be delivered in a controlled manner, β-NGF fusion proteins were incorporated into fibrin matrices during polymerization, and the ability of these matrices to enhance neurite extension in vitro was assayed using chick DRGs. […] A dose response effect for TG-P-NGF fusion protein was observed, with an optimal dose attained when 1-5 μg/mL of β-NGF fusion protein was present in the polymerization mixture. […] Despite the lower activity of the β-NGF fusion proteins in the PC12 cell activity assay, when the plasmin degradable β-NGF fusion protein was covalently coupled to fibrin, it promoted greater levels of neurite extension than the same dose of native NGF in the culture medium.

[2] = test system: chronic leg ulcers of the venous stasis origins; assay: Chronic wound healing on skin in human patients; format: in vivo
Procedure: TG-pl-PDGF AB as described in Example 7 was incorporated into fibrin gels at 33 μg/mL gel and applied topically to patients with chronic leg ulcers of the venous stasis origins (at the Dermatology Klinik of the University Hospital Zürich.)
The fibrin gels were made from Baxter TISSUCOL® kits (Baxter AG, CH 8604 Volketswil) by diluting the fibrinogen component with Citrate-Glycine buffer (pH 7.3) and diluting the thrombin component with 40 mM Calcium chloride-glycine buffer (pH 7.0). The final concentration of fibrinogen in the applied fibrin gel was about 12.5 mg fibrinogen/mL gel. The thrombin concentration was varied to improve handling of the gels. The final concentration of thrombin in the applied fibrin gel was about 4 to 50 U/mL. TG-pl-PDGF AB was added to the diluted fibrinogen component at 66 μg/mL for a total of 33 μg/mL gel concentration. The diluted fibrinogen and thrombin components were packed in separate sterile syringes at the same volume and deep frozen at −20° C. until use.
The gels were applied via a dual syringe system as provided in the TISSUCOL® kit from Baxter. Briefly, each syringe contained either diluted fibrinogen or diluted thrombin. The two syringes were connected to an applicator set and joined by a tip with a blunt cannula. To form a gel, both components were pushed out of the syringes simultaneously, making a 1:1 mixture fibrin gel directly on the ulcer area. Ulcers were covered with a thin sheath of gel, which was allowed to dry for 2 minutes before standard dressing and compression bandaging was applied.

[3] = test system: day 8 chick embryonic dorsal root ganglia; assay: Dorsal root ganglia neurite extension in fibrin gels with peptide/heparin-bound growth factor; format: cell-based; details: DRG
Excerpt: FIG. 2 is a graph of the effect of matrix bound bFGF on DRG neurite extension at 48 hr. Mean values and standard deviation of the mean are shown. (* denotes p<0.05 compared with unmodified fibrin.)
In order to evaluate this approach to release of heparin-binding growth factors from fibrin cell in-growth matrices that also comprise a covalently linked bi-domain peptide, one domain of which is a factor XIIIa substrate and one domain of which is a heparin-binding domain based on antithrombin III, dorsal root ganglia were cultured three-dimensionally within fibrin gels under a variety of conditions, as shown in the below.
Cross-linking Protocol for Use of Heparin-Binding Peptides: • 1) Dialyze fibrinogen (8 mg/ml) versus 4 L of Tris buffered saline (33 mM Tris), pH 7.4 for 24 hours. • 2) Sterile filter fibrinogen using a 0.2 μm syringe filter. • 3) Make the following peptide solutions:
• 4) Make thrombin solution: 100 units in 5 ml TBS. • 5) Add 1.4 ml of fibrinogen to each peptide solution. • 6) Make gels: Add 20 μl of TBS+50 mM CaCl2, 40 μl of thrombin solution (20 units/ml), and 340 μl of peptide solution+fibrinogen. (above solutions make 6 gels). • 7) Incubate at 37° C. for 1 hr. • 8) Wash 5 times in 24 hours. Use 1 ml of TBS the first 4 times and neuronal media the last time. • 9) Dissect day 8 chick embryonic dorsal root ganglia. • 10) Place one ganglia in each gel and place at 37° C. for 1 hr. • 11) Add 1 ml of neuronal media to each gel. • 12) Change media after 24 hours.

fibrin gels = fibrin gels (Homo sapiens, UniProt P02671+P02675+P02679); details: cross-linked during polymerization; gels degraded with plasmin; n=10
Procedure: Size exclusion chromatography was used to determine the amount of peptide cross-linked to fibrin gels using the previously developed incorporation method. A bi-domain peptide containing the heparin-binding domain from antithrombin III and a fluorescent label was incorporated into fibrin gels during polymerization. The free peptide was washed from the gels, and the fibrin network was degraded with plasmin. The degradation products were analyzed by high performance liquid chromatography (size exclusion chromatography) to determine the amount of peptide (by fluorescence) present per mole of fibrinogen (by UV absorbance).

[4] = Dose 400 μg/mL in fibrin matrix
[5] = Dose 1000 μg/mL in fibrin matrix
[6] = fusion protein covalently immobilized in fibrin matrix

fibrin gels, sequence (P02671 20-644 isoform P02671-2 limits assumed): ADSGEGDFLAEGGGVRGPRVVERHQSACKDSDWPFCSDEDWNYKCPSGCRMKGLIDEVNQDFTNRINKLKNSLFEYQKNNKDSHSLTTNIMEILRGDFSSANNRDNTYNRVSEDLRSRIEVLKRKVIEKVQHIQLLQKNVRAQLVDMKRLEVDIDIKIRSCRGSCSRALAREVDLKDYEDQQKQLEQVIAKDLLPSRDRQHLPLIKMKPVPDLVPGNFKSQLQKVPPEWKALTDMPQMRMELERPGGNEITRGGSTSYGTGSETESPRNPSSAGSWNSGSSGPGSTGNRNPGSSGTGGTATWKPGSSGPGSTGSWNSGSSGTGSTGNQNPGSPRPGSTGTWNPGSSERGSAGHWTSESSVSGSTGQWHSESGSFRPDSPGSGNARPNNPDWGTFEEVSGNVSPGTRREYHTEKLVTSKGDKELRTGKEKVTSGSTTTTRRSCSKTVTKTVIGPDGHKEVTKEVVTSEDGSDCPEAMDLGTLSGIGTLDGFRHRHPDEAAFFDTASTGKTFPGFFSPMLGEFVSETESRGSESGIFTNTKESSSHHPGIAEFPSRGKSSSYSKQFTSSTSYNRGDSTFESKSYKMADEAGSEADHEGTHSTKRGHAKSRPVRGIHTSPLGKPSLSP
fibrin gels, sequence (P02675 45-491 limits assumed): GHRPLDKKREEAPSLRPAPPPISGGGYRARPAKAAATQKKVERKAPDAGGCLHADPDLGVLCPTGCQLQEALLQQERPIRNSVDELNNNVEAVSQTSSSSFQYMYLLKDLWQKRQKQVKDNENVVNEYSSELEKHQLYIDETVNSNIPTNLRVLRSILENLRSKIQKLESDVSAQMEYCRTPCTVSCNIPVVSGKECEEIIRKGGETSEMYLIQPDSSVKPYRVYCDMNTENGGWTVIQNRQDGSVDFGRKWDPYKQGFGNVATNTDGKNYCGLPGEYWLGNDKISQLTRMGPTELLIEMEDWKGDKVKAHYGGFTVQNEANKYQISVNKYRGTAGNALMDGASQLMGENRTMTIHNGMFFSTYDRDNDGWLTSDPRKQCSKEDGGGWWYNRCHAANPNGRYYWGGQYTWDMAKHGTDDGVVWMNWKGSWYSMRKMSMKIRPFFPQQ
fibrin gels, sequence (P02679 27-437 isoform P02679-2 limits assumed): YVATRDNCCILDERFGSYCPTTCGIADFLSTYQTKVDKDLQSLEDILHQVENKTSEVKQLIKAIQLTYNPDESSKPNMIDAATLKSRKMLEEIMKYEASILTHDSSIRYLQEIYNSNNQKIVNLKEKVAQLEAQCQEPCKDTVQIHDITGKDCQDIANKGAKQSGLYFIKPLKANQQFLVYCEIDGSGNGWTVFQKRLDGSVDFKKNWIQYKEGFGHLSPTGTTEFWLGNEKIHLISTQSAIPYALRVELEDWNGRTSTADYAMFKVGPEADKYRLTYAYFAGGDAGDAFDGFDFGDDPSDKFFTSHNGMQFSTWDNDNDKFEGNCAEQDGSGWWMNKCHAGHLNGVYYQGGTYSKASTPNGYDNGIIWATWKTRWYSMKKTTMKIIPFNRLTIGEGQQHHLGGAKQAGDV

## NQEQVSPLSVSEIQLMHNLGKHLN SMERVEWLRKKLQDVHNF (NQEQVSPLSVSEIQLMHNLGKHLNSMERVEWLRKKLQDVHNF; Modified parathyroid hormone from Homo sapiens) [TGPTH1-34]
Sheep drill defect; [4]
  Healing (% defect filled with bone): 40%
Sheep drill defect; [5]
  Healing (% defect filled with bone): 65%

## NQEQVSPLYKNRSVSEIQLMHNLGKHLNSMERVEWLRKKLQDVHNF (Modified parathyroid hormone from Homo sapiens) [TG-pl-PTH1-34]
[1]; 3 week timepoint
  level of healing: very similar to that observed with a fibrin matrix alone
[1]; Dose 10 μg/ml in fibrin matrix
  Healing (% defect filled with bone): 43%
[1]; Dose 200 μg/ml in fibrin matrix
  Healing (% defect filled with bone): 50%
[1]; Dose 500 μg/ml in fibrin matrix
  Healing (% defect filled with bone): 62%
[1]; high dose, 7 weeks, versus fibrin alone
  increase of healing response: 65%
Sheep drill defect; Dose 50 μg/mL in fibrin matrix
  Healing (% defect filled with bone): 31.3%
Sheep drill defect; Dose 100 μg/mL in fibrin matrix
  Healing (% defect filled with bone): 59.7%
Sheep drill defect; [4]
  Healing (% defect filled with bone): 73%
Sheep drill defect; [5]
  Healing (% defect filled with bone): 77%

## TG-P-NGF: β-NGF fusion protein with factor XIIIa substrate NQEQVSPL and functional plasmin substrate LIK/MKP (SEQ ID NO:24)
Chick DRGs; dose response in fibrin matrices
  optimal dose of β-NGF fusion protein in the polymerization mixture for neurite extension: 1 to 5 µg/mL
Chick DRGs; [6]
  enhancement of neurite extension over unmodified fibrin with 10 ng/mL of native NGF in medium: up to 50%
  enhancement of neurite extension versus unmodified fibrin with no NGF present in the culture medium: over 350%

## TG-pl-IGF1: IGF1 fusion protein with TG-pl-hook (SEQ ID NO:42)
Sheep drill defect; Dose 67 μg/mL in fibrin matrix
  Healing (% defect filled with bone): 41.5%

## TG-pl-PDGFAB: PDGF AB heterodimer with 21 amino acid TG-pl-hook on both N termini (SEQ ID NO:40 and 41)
Sheep drill defect; Dose 60 μg/mL in fibrin matrix
  Healing (% defect filled with bone): 39.5%
[2]; 33 μg/mL fibrin gel, topical, all three patients
  healing response: enhanced healing response
[2]; 33 μg/mL fibrin gel, topical, one patient, wound about 2 cm^2
  time to complete healing of wound: ≤ 4 weeks
[2]; 33 μg/mL fibrin gel, topical, third patient, deep wound down to the periost (1 cm^2)
  time to complete healing of wound: 15 weeks
[2]; 33 μg/mL fibrin gel, topical, two large wounds on one patient (up to 17 cm^2), after 8 weeks
  decrease in wound bed depth as well as surface area: 30-50%
[2]; fibrin gel treatment, doctors' assessment
  healing versus standard treatment alone: strong enhancement of healing

## VEGF
[3]; 1.0 μg/ml bound VEGF
  effect on neurite extension: did not increase neurite extension

## bFGF: basic fibroblast growth factor, heparin-binding growth factor
[3]; 1 μg/ml and 5 μg/ml of bound bFGF (peptide + heparin in fibrin), dose dependent, 48 hr
  effect on neurite extension: increased
[3]; bFGF added without peptide and heparin, gels washed, 48 hr
  effect on neurite outgrowth: does not enhance neurite outgrowth

## dLNQEQVSPK(βA)FAKLAARLYRKA
Fibrin gels
  incorporation of peptide into fibrin: 8.7±0.2 moles of peptide per mole of fibrinogen
